Earlier results as cited in patent publication US20090004306A1, “Composition for treatment of diabetes and maintaining healthy blood glucose levels” (priority 2007, published 2009).

Tests used:
[1] = Kim study

For chromium picolinate, the “insulin sensitivity and glycemic control” value (ample intakes, individuals and diabetics) is given as “promote insulin sensitivity in many individuals and improve glycemic control in some diabetics”.
For `[Cr]` [chromium], the “glucose levels and related variables” value (people with glucose intolerance and type 1, type 2, gestational, and steroid-induced diabetes) is given as “improve glucose levels and related variables”.
In the case of `O=C/C=C/c1ccccc1` [cinnamaledhyde], the “hypoglycemic properties / blood glucose level” value [1] is given as “exhibit hypoglycemic properties”.
